# Assay results taken from US20260130395A1, “Water Dispersible Botanical Compositions” (Aquila Black Limited, priority 2021, published 2026).
# Experiments:
# Format in all cases: physicochemical
# [1] = Stability of cannabinoid compounds and Vitamin E components in Beverage 1 (AB White) by LCMSMS; conditions: for storage time after which some slight degradation is shown: monitored 570 days
# [2] = Stability of cannabinoid entourage and Vitamin E components of the powder concentrate by LCMSMS; conditions: for Stability of Plant-Derived Cannabinoid Compounds in Powder Concentrate: powder stored at 21-25° C.
# Procedure: At each time period, 0.05 g of powder was dissolved in 10 ml-15 of ethanol, diluted to fall within the analytical range, and injected into the LCMSMS for analysis.
# [3] = Stability of cannabinoid compounds and Vitamin E components in Beverage 2 (AB Red) by LCMSMS; conditions: monitored 570 days
# Procedure: The stability of the plant-derived cannabinoid compounds and Vitamin E components of the beverage stored 8° C. and at room temperature (21-25° C.) were monitored, over a period of 570 days via Liquid Chromatography-tandem Mass Spectrometry [LCMSMS, AGilent 6590, C18, 3×50 mm, 2.7 m (Agilent InfinityLab Poroshell 120 EC-C18), Electrospray Ionization detector]. The LCMSMS was calibrated for 0-50 ng/ml cannabinoids with the same resin material used in the preparation of the concentrates. At each time period, 100 ml of beverage was diluted with 10 ml of methanol and injected into the LCMSMS for analysis.
# [4] = Stability of Nanoemulsion Concentrate 3 (α-tocopherol and Vitamin B12 content) by LCMSMS; conditions: for Stability of Vitamin B12 in Nanoemulsion Concentrate 3: average of triplicate
# Procedure: At each time period (0, 7, 28, 60, 120, 150 and 180 days), triplicate samples were analysed for content of α-tocopherol and Vitamin B12.
# (FIGS. 14 and 15, Table 13). Data reported in Table 13 and plotted in FIGS. 14 and 15 are average values of the triplicate measurements taken.
compound,measurement,setting,value
"C=C(C)[C@@H]1CCC(C)=C[C@H]1c1c(O)cc(CCCCC)cc1O [CBD, cannabidiol, reference compound]","Stability of Plant-Derived Cannabinoid Compounds in AB White, 8° C.","[1]; AB White stored at 8° C., 0 days",28.5 µg/mL
same,"Stability of Plant-Derived Cannabinoid Compounds in AB White, 8° C.","[1]; AB White stored at 8° C., 1 days",27.65 µg/mL
same,"Stability of Plant-Derived Cannabinoid Compounds in AB White, 8° C.","[1]; AB White stored at 8° C., 2 days",27.67 µg/mL
same,"Stability of Plant-Derived Cannabinoid Compounds in AB White, 8° C.","[1]; AB White stored at 8° C., 3 days",27.96 µg/mL
same,"Stability of Plant-Derived Cannabinoid Compounds in AB White, 8° C.","[1]; AB White stored at 8° C., 5 days",28.61 µg/mL
same,"Stability of Plant-Derived Cannabinoid Compounds in AB White, 8° C.","[1]; AB White stored at 8° C., 8 days",28.47 µg/mL
same,"Stability of Plant-Derived Cannabinoid Compounds in AB White, 8° C.","[1]; AB White stored at 8° C., 9 days",28.44 µg/mL
same,"Stability of Plant-Derived Cannabinoid Compounds in AB White, 8° C.","[1]; AB White stored at 8° C., 10 days",27.87 µg/mL
same,"Stability of Plant-Derived Cannabinoid Compounds in AB White, 8° C.","[1]; AB White stored at 8° C., 11 days",28.13 µg/mL
same,"Stability of Plant-Derived Cannabinoid Compounds in AB White, 8° C.","[1]; AB White stored at 8° C., 12 days",28.10 µg/mL
same,"Stability of Plant-Derived Cannabinoid Compounds in AB White, 8° C.","[1]; AB White stored at 8° C., 15 days",27.99 µg/mL
same,"Stability of Plant-Derived Cannabinoid Compounds in AB White, 8° C.","[1]; AB White stored at 8° C., 16 days",28.04 µg/mL
same,"Stability of Plant-Derived Cannabinoid Compounds in AB White, 8° C.","[1]; AB White stored at 8° C., 17 days",27.84 µg/mL
same,"Stability of Plant-Derived Cannabinoid Compounds in AB White, 8° C.","[1]; AB White stored at 8° C., 18 days",27.87 µg/mL
same,"Stability of Plant-Derived Cannabinoid Compounds in AB White, 8° C.","[1]; AB White stored at 8° C., 19 days",28.36 µg/mL
same,"Stability of Plant-Derived Cannabinoid Compounds in AB White, 8° C.","[1]; AB White stored at 8° C., 22 days",28.50 µg/mL
same,"Stability of Plant-Derived Cannabinoid Compounds in AB White, 8° C.","[1]; AB White stored at 8° C., 23 days",27.67 µg/mL
same,"Stability of Plant-Derived Cannabinoid Compounds in AB White, 8° C.","[1]; AB White stored at 8° C., 24 days",28.44 µg/mL
same,"Stability of Plant-Derived Cannabinoid Compounds in AB White, 8° C.","[1]; AB White stored at 8° C., 25 days",27.65 µg/mL
same,"Stability of Plant-Derived Cannabinoid Compounds in AB White, 8° C.","[1]; AB White stored at 8° C., 26 days",27.73 µg/mL
same,"Stability of Plant-Derived Cannabinoid Compounds in AB White, 8° C.","[1]; AB White stored at 8° C., 29 days",28.24 µg/mL
same,"Stability of Plant-Derived Cannabinoid Compounds in AB White, 8° C.","[1]; AB White stored at 8° C., 30 days",27.93 µg/mL
same,"Stability of Plant-Derived Cannabinoid Compounds in AB White, 8° C.","[1]; AB White stored at 8° C., 60 days",27.73 µg/mL
same,"Stability of Plant-Derived Cannabinoid Compounds in AB White, 8° C.","[1]; AB White stored at 8° C., 90 days",27.87 µg/mL
same,"Stability of Plant-Derived Cannabinoid Compounds in AB White, 8° C.","[1]; AB White stored at 8° C., 120 days",27.39 µg/mL
same,"Stability of Plant-Derived Cannabinoid Compounds in AB White, 8° C.","[1]; AB White stored at 8° C., 150 days",28.59 µg/mL
same,"Stability of Plant-Derived Cannabinoid Compounds in AB White, 8° C.","[1]; AB White stored at 8° C., 180 days",27.59 µg/mL
same,"Stability of Plant-Derived Cannabinoid Compounds in AB White, 8° C.","[1]; AB White stored at 8° C., 210 days",27.76 µg/mL
same,"Stability of Plant-Derived Cannabinoid Compounds in AB White, 8° C.","[1]; AB White stored at 8° C., 240 days",27.79 µg/mL
same,"Stability of Plant-Derived Cannabinoid Compounds in AB White, 8° C.","[1]; AB White stored at 8° C., 270 days",28.07 µg/mL
same,"Stability of Plant-Derived Cannabinoid Compounds in AB White, 8° C.","[1]; AB White stored at 8° C., 300 days",27.96 µg/mL
same,"Stability of Plant-Derived Cannabinoid Compounds in AB White, 8° C.","[1]; AB White stored at 8° C., 330 days",27.33 µg/mL
same,"Stability of Plant-Derived Cannabinoid Compounds in AB White, 8° C.","[1]; AB White stored at 8° C., 360 days",27.79 µg/mL
same,"Stability of Plant-Derived Cannabinoid Compounds in AB White, 8° C.","[1]; AB White stored at 8° C., 390 days",27.50 µg/mL
same,"Stability of Plant-Derived Cannabinoid Compounds in AB White, 8° C.","[1]; AB White stored at 8° C., 420 days",27.50 µg/mL
same,"Stability of Plant-Derived Cannabinoid Compounds in AB White, 8° C.","[1]; AB White stored at 8° C., 480 days",27.13 µg/mL
same,"Stability of Plant-Derived Cannabinoid Compounds in AB White, 8° C.","[1]; AB White stored at 8° C., 510 days",26.48 µg/mL
same,"Stability of Plant-Derived Cannabinoid Compounds in AB White, 8° C.","[1]; AB White stored at 8° C., 540 days",26.51 µg/mL
same,"Stability of Plant-Derived Cannabinoid Compounds in AB White, 8° C.","[1]; AB White stored at 8° C., 570 days",26.22 µg/mL
same,storage time after which some slight degradation is shown,[1]; AB White stored at 8° C.,> 480 days
same,storage time after which some slight degradation is shown,[1]; AB White stored at 21-25° C.,> 390 days
same,degradation over the entire period (in words),"[2]; powder concentrate stored at 21-25° C., 570 days",no significant degradation
same,Stability of Plant-Derived Cannabinoid Compounds in Powder Concentrate,[2]; 0 days,5.85 mg/g powder
same,Stability of Plant-Derived Cannabinoid Compounds in Powder Concentrate,[2]; 1 days,5.69 mg/g powder
same,Stability of Plant-Derived Cannabinoid Compounds in Powder Concentrate,[2]; 2 days,5.76 mg/g powder
same,Stability of Plant-Derived Cannabinoid Compounds in Powder Concentrate,[2]; 3 days,5.8 mg/g powder
same,Stability of Plant-Derived Cannabinoid Compounds in Powder Concentrate,[2]; 5 days,5.84 mg/g powder
same,Stability of Plant-Derived Cannabinoid Compounds in Powder Concentrate,[2]; 8 days,5.91 mg/g powder
same,Stability of Plant-Derived Cannabinoid Compounds in Powder Concentrate,[2]; 9 days,6.01 mg/g powder
same,Stability of Plant-Derived Cannabinoid Compounds in Powder Concentrate,[2]; 10 days,5.69 mg/g powder
same,Stability of Plant-Derived Cannabinoid Compounds in Powder Concentrate,[2]; 11 days,6.00 mg/g powder
same,Stability of Plant-Derived Cannabinoid Compounds in Powder Concentrate,[2]; 12 days,5.76 mg/g powder
same,Stability of Plant-Derived Cannabinoid Compounds in Powder Concentrate,[2]; 15 days,5.85 mg/g powder
same,Stability of Plant-Derived Cannabinoid Compounds in Powder Concentrate,[2]; 16 days,5.97 mg/g powder
same,Stability of Plant-Derived Cannabinoid Compounds in Powder Concentrate,[2]; 17 days,5.97 mg/g powder
same,Stability of Plant-Derived Cannabinoid Compounds in Powder Concentrate,[2]; 18 days,6.01 mg/g powder
same,Stability of Plant-Derived Cannabinoid Compounds in Powder Concentrate,[2]; 19 days,5.74 mg/g powder
same,Stability of Plant-Derived Cannabinoid Compounds in Powder Concentrate,[2]; 22 days,5.84 mg/g powder
same,Stability of Plant-Derived Cannabinoid Compounds in Powder Concentrate,[2]; 23 days,6.10 mg/g powder
same,Stability of Plant-Derived Cannabinoid Compounds in Powder Concentrate,[2]; 24 days,5.89 mg/g powder
same,Stability of Plant-Derived Cannabinoid Compounds in Powder Concentrate,[2]; 25 days,6.01 mg/g powder
same,Stability of Plant-Derived Cannabinoid Compounds in Powder Concentrate,[2]; 26 days,6.00 mg/g powder
same,Stability of Plant-Derived Cannabinoid Compounds in Powder Concentrate,[2]; 29 days,5.97 mg/g powder
same,Stability of Plant-Derived Cannabinoid Compounds in Powder Concentrate,[2]; 30 days,5.94 mg/g powder
same,Stability of Plant-Derived Cannabinoid Compounds in Powder Concentrate,[2]; 60 days,5.66 mg/g powder
same,Stability of Plant-Derived Cannabinoid Compounds in Powder Concentrate,[2]; 90 days,6.00 mg/g powder
same,Stability of Plant-Derived Cannabinoid Compounds in Powder Concentrate,[2]; 120 days,5.80 mg/g powder
same,Stability of Plant-Derived Cannabinoid Compounds in Powder Concentrate,[2]; 150 days,5.65 mg/g powder
same,Stability of Plant-Derived Cannabinoid Compounds in Powder Concentrate,[2]; 180 days,5.93 mg/g powder
same,Stability of Plant-Derived Cannabinoid Compounds in Powder Concentrate,[2]; 210 days,5.83 mg/g powder
same,Stability of Plant-Derived Cannabinoid Compounds in Powder Concentrate,[2]; 240 days,5.98 mg/g powder
same,Stability of Plant-Derived Cannabinoid Compounds in Powder Concentrate,[2]; 270 days,5.72 mg/g powder
same,Stability of Plant-Derived Cannabinoid Compounds in Powder Concentrate,[2]; 300 days,5.84 mg/g powder
same,Stability of Plant-Derived Cannabinoid Compounds in Powder Concentrate,[2]; 330 days,6.01 mg/g powder
same,Stability of Plant-Derived Cannabinoid Compounds in Powder Concentrate,[2]; 360 days,5.97 mg/g powder
same,Stability of Plant-Derived Cannabinoid Compounds in Powder Concentrate,[2]; 390 days,5.93 mg/g powder
same,Stability of Plant-Derived Cannabinoid Compounds in Powder Concentrate,[2]; 420 days,5.94 mg/g powder
same,Stability of Plant-Derived Cannabinoid Compounds in Powder Concentrate,[2]; 450 days,5.65 mg/g powder
same,Stability of Plant-Derived Cannabinoid Compounds in Powder Concentrate,[2]; 480 days,5.66 mg/g powder
same,Stability of Plant-Derived Cannabinoid Compounds in Powder Concentrate,[2]; 510 days,6.01 mg/g powder
same,Stability of Plant-Derived Cannabinoid Compounds in Powder Concentrate,[2]; 540 days,5.81 mg/g powder
same,Stability of Plant-Derived Cannabinoid Compounds in Powder Concentrate,[2]; 570 days,5.85 mg/g powder
same,storage time after which some slight degradation is shown,[3]; AB Red stored at 8° C.,> 420 days
same,storage time after which some slight degradation is shown,[3]; AB Red stored at 21-25° C.,> 390 days
Vitamin B12,Stability of Vitamin B12 in Nanoemulsion Concentrate 3,"[4]; Refrigerated (2-4° C.), 0 days",28.67 ng/mL
same,Stability of Vitamin B12 in Nanoemulsion Concentrate 3,"[4]; Refrigerated (2-4° C.), 7 days",30.33 ng/mL
same,Stability of Vitamin B12 in Nanoemulsion Concentrate 3,"[4]; Refrigerated (2-4° C.), 28 days",29.33 ng/mL
same,Stability of Vitamin B12 in Nanoemulsion Concentrate 3,"[4]; Refrigerated (2-4° C.), 60 days",30.00 ng/mL
same,Stability of Vitamin B12 in Nanoemulsion Concentrate 3,"[4]; Refrigerated (2-4° C.), 120 days",32.00 ng/mL
same,Stability of Vitamin B12 in Nanoemulsion Concentrate 3,"[4]; Refrigerated (2-4° C.), 150 days",29.67 ng/mL
same,Stability of Vitamin B12 in Nanoemulsion Concentrate 3,"[4]; Refrigerated (2-4° C.), 180 days",32.50 ng/mL
same,Stability of Vitamin B12 in Nanoemulsion Concentrate 3,"[4]; Room Temperature (21-25° C.), 0 days",28.67 ng/mL
same,Stability of Vitamin B12 in Nanoemulsion Concentrate 3,"[4]; Room Temperature (21-25° C.), 7 days",24.00 ng/mL
same,Stability of Vitamin B12 in Nanoemulsion Concentrate 3,"[4]; Room Temperature (21-25° C.), 28 days",22.67 ng/mL
same,Stability of Vitamin B12 in Nanoemulsion Concentrate 3,"[4]; Room Temperature (21-25° C.), 60 days",22.67 ng/mL
same,Stability of Vitamin B12 in Nanoemulsion Concentrate 3,"[4]; Room Temperature (21-25° C.), 120 days",19.67 ng/mL
same,Stability of Vitamin B12 in Nanoemulsion Concentrate 3,"[4]; Room Temperature (21-25° C.), 150 days",19.00 ng/mL
same,Stability of Vitamin B12 in Nanoemulsion Concentrate 3,"[4]; Room Temperature (21-25° C.), 180 days",16.50 ng/mL
same,stability in Nanoemulsion Concentrate 3 (in words),[4]; after 180 days stored at 21-25° C.,some slight degradation
same,stability in Nanoemulsion Concentrate 3 (in words),"[4]; stored at 2-4° C., 180 days",high degree of stability
